According to publication PMC7696255, “In-Silico Identified New Natural Sortase A Inhibitors Disrupt S. aureus Biofilm Formation” (International Journal of Molecular Sciences, 2020):
≈ marks a conversion by molar mass, not a printed value. Like-named read-outs stand apart in the source and are kept apart here.

Tests used:
[1] = molecular target: T1, S. aureus sortase A (Staphylococcus aureus, UniProt Q2FV99); experiment: SrtA enzyme inhibition FRET assay, DABCYL-LPETG-EDANS substrate; type: biochemical
T1 construct: purchased AnaSpec AS-72229
Method: (§1) The enzymatic reactions were carried out in black, low-binding polystyrene 384 well plates (Greiner Bio-One). […] SrtA was pre-incubated in the reaction buffer with compounds for 1 h at room temperature prior to the addition of the FRET substrate. Assays were performed in 50 µL reactions with 50 ng of S. aureus sortase A and 25 µM of DABCYL-LPETG-EDANS substrate or 1 µM of 5-FAM/QXL^TM 520 substrate. The inhibitory activity of the compounds was determined by monitoring the rise in fluorescence intensity over 24 h at Ex/Em = 336 nm/490 nm for the DABCYL/EDANS substrate and Ex/Em = 490 nm/520 nm for the 5-FAM/QXL 520 substrate on a Tecan Infinite M1000 Pro reader.
(§2) Raw fluorescence data were corrected for autofluorescence before computing percentage inhibition values. These percentage inhibition values were plotted against compound concentration using GraphPad Prism version 8.0 by nonlinear regression analysis using least squares fit method for IC50 determination. Testing was performed twice to ensure reproducibility of results.

[2] = molecular target: T1, S. aureus sortase A; experiment: SrtA enzyme inhibition FRET assay, 5-FAM/QXL 520 substrate; type: biochemical; conditions: Sortase A IC50, 5-FAM/QXL substrate; 10 min
Method: as §1, §2

[3] = test system: S. aureus ATCC 25923; experiment: S. aureus whole cell assay (MIC, microbroth dilution); type: cell-based, Staphylococcus aureus
Method: (§3) Minimum inhibitory concentration (MIC) tests were performed according to procedures of the Clinical Laboratory Standards Institute (CLSI) with minor changes using the microbroth dilution technique in a 384-well setup. Inoculum of each S. aureus strain was prepared by suspending segregated colonies in sterile saline to a 0.5 McFarland standard. An inoculum of 2–8 × 10^5 CFU/mL was incubated with the compounds for 24 h at 37 °C. Gentamicin (data not shown) was incubated in the same manner as the test compounds and served as a positive control. The effect of the compounds on bacterial growth was calculated by quantifying the optical density at 600 nm on a microplate reader (Tecan, Infinite M1000, Salzburg, Austria). Dilutions of the inoculum were cultivated on agar to verify the validity of the inoculum seeding density and absence of contamination. All tests were executed in triplicate during two separate experiments.

[4] = test system: S. aureus ATCC 33591 (MRSA); experiment: as above; type: cell-based, Staphylococcus aureus; conditions: 24 h
Method: as §3

[5] = test system: S. aureus Newman; experiment: as above; type: cell-based, Staphylococcus aureus; conditions: 24 h
Method: as §3

[6] = test system: A549 cells; experiment: Mammalian cell cytotoxicity assay (PrestoBlue); type: cell-based, human; conditions: read-out: Mammalian cell lines IC50
Method: (§4) A549 and HepG2 cells were seeded at 1500 and 2500 cells per well, respectively, in 384-well microplates and incubated at 37 °C in the presence of 5% CO2. The next day, cells were treated with compounds then incubated for an additional 72 h. To assess the cytotoxic effect of the compounds PrestoBlue cell viability reagent (Life Technologies, Carlsbad, CA, USA) was used. After the 72 h incubation with compounds, the 384-well assay plates were incubated with this viability indicator dye for 2 h (A549) and 4 h (HepG2) before fluorescence reading at Ex/Em = 560 nm/590 nm on the Tecan Infinite M1000 Pro reader. Puromycin (data not shown) was used as the positive control against both cell lines. All tests were executed in triplicate on two separate experiments.

[7] = test system: HepG2 cells; experiment: Mammalian cell cytotoxicity assay (PrestoBlue); type: cell-based, human; conditions: read-out: Mammalian cell lines IC50
Method: as §4

[8] = test system: S. aureus ATCC 33591 (MRSA) biofilm formation; experiment: Biofilm inhibitory assay (crystal violet), biofilm formation; type: cell-based, Staphylococcus aureus
Method: (§5) The effectiveness of SrtA inhibitors in reducing biofilm formation and growth was assessed using the crystal violet (CV) biofilm assay with the following modifications. TSB with 2% glucose (TSB without glucose for E. coli) was inoculated with 10^5 CFU/mL of S. aureus and E. coli overnight cultures. A total of 90µl of this cell suspension was then dispensed into 96-well microtiter plates containing 10 µL of different concentrations of the SrtA inhibitors. After 24 h growth at 37 °C the plates were washed with PBS to remove unbound cells and heat fixed at 60 °C for 30 min. Next, the wells were stained with 0.1% crystal violet solution for 15 min at room temperature. At the completion of the incubation plates were washed 3 times with PBS and dried. Then the crystal violet dye from the biofilm was solubilized with 200 µL of DMSO. A total of 100 µL of this solution was then moved to a new microtiter plate for absorbance measurement at 595 nm. For pre-formed biofilm assay, the plates were prepared and incubated as mentioned earlier, without SrtA inhibitors. After 24 h incubation, the culture supernatant was removed gently and biofilm carefully washed with sterile PBS. Next, 10 µL of different concentrations of SrtA inhibitors with 90 µL of TSB with 2% glucose were added carefully into the wells and incubated at 37 °C for 24 h. The amount of crystal violet staining of biofilm was measured as described above. The results were reported as percent inhibition normalized to the wild type control. Two independent experiments were performed in triplicate to ensure reproducibility.

[9] = test system: S. aureus Newman biofilm formation; experiment: as above; type: cell-based, Staphylococcus aureus; conditions: CV assay
Method: as §5

[10] = test system: S. aureus ATCC 33591 (MRSA) pre-formed biofilms; experiment: Biofilm inhibitory assay (crystal violet), pre-formed biofilms; type: cell-based, Staphylococcus aureus
Method: as §5

[11] = test system: S. aureus Newman pre-formed biofilms; experiment: as above; type: cell-based, Staphylococcus aureus; conditions: CV assay
Method: as §5

[12] = test system: E. coli ATCC 25922 biofilm formation; experiment: Biofilm inhibitory assay (crystal violet), biofilm formation; type: cell-based; conditions: in words; CV assay
Method: as §5, with “Next, 10 µL of different concentrations of SrtA inhibitors with 90 µL of TSB with 2% glucose were added carefully into the wells and incubated at 37 °C for 24 h.” left out, “The results were reported as percent inhibition normalized to the wild type control. Two independent experiments were performed in triplicate to ensure reproducibility.” left out

[13] = test system: adherence of S. aureus Newman to fibrinogen; experiment: Fibrinogen binding assay; type: cell-based, Staphylococcus aureus
Method: Fibrinogen binding assay was completed as described but with slight revision. A flat-bottom 96-well plate was covered with fibrinogen protein by adding 50 µL of 20 µg/mL of fibrinogen protein from bovine plasma diluted in saline and incubated at 4 °C for 24 h. The coated plates were gently rinsed twice with PBS and blocked for 60 min with 4% bovine serum albumin (BSA). The plates were then washed 3 times with PBS. For this assay, S. aureus Newman strain was cultivated in TSB at 37 °C to exponential phase (OD600 = 0.5) and then the bacterial culture was incubated with various concentrations of test compound or control for 2.5 h. Then the cells were pelleted by centrifugation at 10,000× g for 10 min, the supernatants were removed and the cell pellets stored at −20 °C. The following day, cell pellets were suspended in PBS and dispersed in 100 μL aliquots to distinct wells of fibrinogen-coated 96-well plates. After 2 h of growth at 37 °C, the bacterial supernatant was discarded and the wells were rinsed gently with 150 µl PBS. Then the bacterial cells were fixed with 2% (v/v) glutaraldehyde and incubated for 30 min at 25 °C. After a wash with PBS, bound cells were stained with 0.1% crystal violet dye for 15 min. Plates were rinsed twice again with PBS, enclosed with aluminum foil, then stored at room temperature to dry overnight. On the next day absorbance was measured at 570 nm. The results were described as the percent of adhesion inhibition normalized to the wild type control. Two independent experiments were performed in triplicate to ensure reproducibility.

T1 sequence (Q2FV99 whole entry): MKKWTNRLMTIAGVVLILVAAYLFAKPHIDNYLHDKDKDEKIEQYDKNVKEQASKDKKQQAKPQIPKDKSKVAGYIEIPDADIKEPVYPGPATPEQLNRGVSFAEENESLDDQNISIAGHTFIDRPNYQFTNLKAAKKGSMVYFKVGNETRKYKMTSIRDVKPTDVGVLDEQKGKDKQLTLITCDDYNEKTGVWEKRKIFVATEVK

With `CC(C)CCCc1c(O)ccc(C(=O)c2cc(Cl)c(Cl)[nH]2)c1O` [Compound N2576, (4,5-dichloro-1H-pyrrol-2-yl)-[2,4-dihydroxy-3-(4-methyl-pentyl)-phenyl]-methanone] as the compound, how does the IC50 ([1]; Sortase A IC50, DABCYL-LPETG-EDANS substrate, 4 h) read?
The IC50 was 47 ± 4.2 µM.

And the IC50 ([1]; SrtA enzymatic activity IC50, text summary, Figure 2A,B, both substrates)?
The IC50 was < 50 µM.

What about the IC50 [2] of the same compound?
Its IC50 is 32 ± 6.3 µM.

And the “S. aureus MIC” value ([3]; 24 h)?
Its value is 5 to 8 µM.

What about the MIC ([3]; Staphylococcus aureus, ATCC25923, 24 h) of the same compound?
The MIC was 6.3 ± 0.1 µM (≈ 2.24 µg/mL).

And the “S. aureus MIC” value [4]?
The value was 25 to 80 µM.

And the MIC ([4]; Staphylococcus aureus)?
The MIC was 25.2 ± 5.5 µM (≈ 8.98 µg/mL).

What about the “S. aureus MIC” value ([5]; Newman) of the same compound?
Its value is 5 to 8 µM.

What about the MIC ([5]; Staphylococcus aureus, NEWMAN) of the same compound?
The MIC was 5.8 ± 1.3 µM (≈ 2.07 µg/mL).

What about the IC50 ([6]; 72 h) of the same compound?
Its IC50 is 60 to 90 µM.

And the IC50 ([6]; Homo sapiens, A549, 72 h)?
Its IC50 is 88.1 ± 13 µM.

And the IC50 ([7]; 72 h)?
Its IC50 is 60 to 90 µM.

What about the IC50 ([7]; Homo sapiens, HepG2, 72 h) of the same compound?
The IC50 was 65 ± 7.4 µM.

And the “concentration giving >90% inhibition on MRSA biofilm formation” value ([8]; CV assay)?
Its value is 70 µM.

And the IC50 ([8]; Staphylococcus aureus, S. aureus ATCC 33591 (MRSA), biofilm formation, read-out: Biofilm Inhibition IC50)?
Its IC50 is 24.8 µM.

And the “concentration giving >90% inhibition of biofilm formation” value [9]?
Its value is 4.4 µM.

What about the IC50 ([9]; Staphylococcus aureus, NEWMAN, biofilm formation, read-out: Biofilm Inhibition IC50) of the same compound?
The IC50 was 2.9 µM.

And the “concentration giving >90% inhibition on MRSA preformed biofilms” value ([10]; CV assay)?
The value was 280 µM.

What about the IC50 ([10]; Staphylococcus aureus, S. aureus ATCC 33591 (MRSA), pre-formed biofilms, read-out: Biofilm Inhibition IC50) of the same compound?
The IC50 was > 200 µM.

What about the “concentration giving >90% inhibition on preformed biofilms” value [11] of the same compound?
Its value is 17 µM.

What about the IC50 ([11]; Staphylococcus aureus, pre-formed biofilms, read-out: Biofilm Inhibition IC50) of the same compound?
The IC50 was 10 µM.

What about the “effect on E. coli ATCC 25922 biofilm formation” value [12] of the same compound?
Its value is “did not show any effect”.

What about the IC50 ([13]; Staphylococcus aureus, NEWMAN, read-out: Fibrinogen adherence Inhibition IC50) of the same compound?
The IC50 was 5.7 ± 0.8 µM.

And the “concentration giving ≥90% prevention of S. aureus Newman adherence to fibrinogen” value ([13]; compared to untreated wildtype strain)?
Its value is 17 µM.
